Assay results as given in paper PMC9090415, “Discovery of small molecule inhibitors of Plasmodium falciparum apicoplast DNA polymerase” (Journal of Enzyme Inhibition and Medicinal Chemistry, 2022).

Molecular target: T1, bacteriophage T4 DNA polymerase (Enterobacteria phage T4, UniProt P04415)
T1 construct: made in house
T1 sequence (P04415 1-898): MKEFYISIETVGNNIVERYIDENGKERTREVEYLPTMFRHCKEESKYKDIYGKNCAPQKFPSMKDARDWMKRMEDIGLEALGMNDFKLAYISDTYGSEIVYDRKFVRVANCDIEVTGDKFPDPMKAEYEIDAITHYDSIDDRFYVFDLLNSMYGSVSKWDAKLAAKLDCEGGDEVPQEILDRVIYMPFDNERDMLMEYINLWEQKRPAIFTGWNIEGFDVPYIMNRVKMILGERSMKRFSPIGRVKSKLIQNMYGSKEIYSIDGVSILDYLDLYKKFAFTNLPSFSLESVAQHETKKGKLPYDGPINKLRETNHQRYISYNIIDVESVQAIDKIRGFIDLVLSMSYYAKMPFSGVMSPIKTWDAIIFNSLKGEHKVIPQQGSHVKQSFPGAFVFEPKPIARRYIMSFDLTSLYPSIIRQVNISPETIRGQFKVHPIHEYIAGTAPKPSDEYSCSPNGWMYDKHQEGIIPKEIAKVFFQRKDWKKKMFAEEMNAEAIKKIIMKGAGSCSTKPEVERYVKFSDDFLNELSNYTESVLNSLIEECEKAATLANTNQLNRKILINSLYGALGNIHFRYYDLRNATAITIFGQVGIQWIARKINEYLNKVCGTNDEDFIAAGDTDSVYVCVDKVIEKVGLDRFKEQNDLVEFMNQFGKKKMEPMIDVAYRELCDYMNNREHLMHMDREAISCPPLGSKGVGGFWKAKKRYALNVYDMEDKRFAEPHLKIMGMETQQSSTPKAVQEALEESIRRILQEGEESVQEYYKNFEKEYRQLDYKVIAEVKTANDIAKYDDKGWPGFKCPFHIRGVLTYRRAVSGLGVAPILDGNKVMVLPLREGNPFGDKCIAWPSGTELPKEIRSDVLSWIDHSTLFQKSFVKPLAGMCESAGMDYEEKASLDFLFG
Test: Counter-screen against bacteriophage T4 DNA polymerase
Assay type: biochemical
Conditions: for % inhibition T4 10' 2.5 / % inhibition T4 10' 5 / % inhibition T4 10' 10 / % inhibition T4 10' 20 / % inhibition T4 10' 40 / % inhibition T4 10' 80: read at 10'
Description: Codon-optimized, exonuclease-deficient Pf-apPOL was overexpressed in E. coli BL21 (DE3) and purified as described. The protein was dialysed against two, 1-liter changes of 20 mM Tris-HCl (pH 8.0), 400 mM NaCl, and 20% glycerol. Plasmodium bergei and Babesia bovis apPOLs (Pb-apPOL and Bb-apPOL, respectively) were codon-optimized, expressed, and purified as for Pf-apPOL[15]. Bacteriophage T4 DNA polymerase was purified as described. The DNA oligonucleotides used to make the high-throughput substrate were obtained from Integrated DNA Technologies. Deoxynucleotides were purchased from Strategene. All other materials came from Fisher Scientific.
Each compound was tested in a dose-response format to determine IC50 values. […] T4 DNA polymerase can be produced in large quantities, and is in the same family (B-family) as the replicative human DNA polymerases (α, δ, and ε)[20].

For `Cc1ccc(-n2nnc(C(=O)O)c2-c2ccccn2)c(F)c1` [Molecule 54, Cc1ccc(c(c1)F)n1nnc(c1c1ccccn1)C(=O)O], the “% inhibition T4 10'” value (DRC-2, concentration 2.5) was 18%, the “% inhibition T4 10'” value (DRC-2, concentration 5) was 23% and the “% inhibition T4 10'” value (DRC-2, concentration 10) was 30%. The “% inhibition T4 10'” value (DRC-2, concentration 40) was 27%, the “% inhibition T4 10'” value (DRC-2, concentration 80) was 24% and the “% inhibition T4 40'” value (DRC-2, concentration 2.5) was 18%. The “% inhibition T4 40'” value (DRC-2, concentration 5) was 23%, the “% inhibition T4 40'” value (DRC-2, concentration 10) was 30% and the “% inhibition T4 40'” value (DRC-2, concentration 40) was 27%. The “% inhibition T4 40'” value (DRC-2, concentration 80) was 24%, the “% inhibition T4 90'” value (DRC-2, concentration 2.5) was 17% and the “% inhibition T4 90'” value (DRC-2, concentration 10) was 27%. The “% inhibition T4 90'” value (DRC-2, concentration 20) was 22%, the “% inhibition T4 90'” value (DRC-2, concentration 40) was 23% and the “% inhibition T4 90'” value (DRC-2, concentration 80) was 22%. For the same compound, the “% inhibition T4 180'” value (DRC-2, concentration 10) was 22%, the “% inhibition T4 180'” value (DRC-2, concentration 20) was 17% and the “% inhibition T4 180'” value (DRC-2, concentration 40) was 20%. For the same compound, the “% inhibition T4 180'” value (DRC-2, concentration 80) was 20%.
In the case of `O=C1N=C(Nc2cccc(Cl)c2Cl)S/C1=C\c1ccco1` [Molecule 3, O=C1N=C(S/C/1=C\c1ccco1)Nc1cccc(c1Cl)Cl], the “% inhibition T4 10'” value (DRC-2, concentration 2.5) is reported as 26%, the “% inhibition T4 10'” value (DRC-2, concentration 5) is reported as 29% and the “% inhibition T4 10'” value (DRC-2, concentration 20) is reported as 30%. The “% inhibition T4 10'” value (DRC-2, concentration 40) was 29%, the “% inhibition T4 10'” value (DRC-2, concentration 80) was 13% and the “% inhibition T4 40'” value (DRC-2, concentration 2.5) was 26%. For the same compound, the “% inhibition T4 40'” value (DRC-2, concentration 5) was 29%, the “% inhibition T4 40'” value (DRC-2, concentration 20) was 30% and the “% inhibition T4 40'” value (DRC-2, concentration 40) was 29%. For the same compound, the “% inhibition T4 40'” value (DRC-2, concentration 80) was 13%, the “% inhibition T4 90'” value (DRC-2, concentration 5) was 27% and the “% inhibition T4 90'” value (DRC-2, concentration 20) was 30%. For the same compound, the “% inhibition T4 90'” value (DRC-2, concentration 40) was 30%, the “% inhibition T4 180'” value (DRC-2, concentration 10) was 29% and the “% inhibition T4 180'” value (DRC-2, concentration 20) was 27%. The “% inhibition T4 180'” value (DRC-2, concentration 40) was 30%.
With `O=C(CSc1nnc(-c2ccco2)[nH]1)c1ccc(Cl)cc1` [KU0029065] the “% inhibition T4 40'” value (DRC-2, concentration 10) was 3%, the “% inhibition T4 40'” value (DRC-2, concentration 40) was -2% and the “% inhibition T4 90'” value (DRC-2, concentration 2.5) was -13%. The “% inhibition T4 90'” value (DRC-2, concentration 20) was 3%, the “% inhibition T4 180'” value (DRC-2, concentration 2.5) was -13% and the “% inhibition T4 180'” value (DRC-2, concentration 10) was -2%.
With `C#CC(C=CC)OC(=O)c1ccccc1C(=O)O` (centres unmarked) [Molecule 61, CC=CC(OC(=O)c1ccccc1C(=O)O)C#C] the “% inhibition T4 10' 2.5” value (DRC-1, concentration 2.5) was 9.3785%, the “% inhibition T4 10' 5” value (DRC-1, concentration 5) was 11.31% and the “% inhibition T4 10' 10” value (DRC-1, concentration 10) was 22.4398%. The “% inhibition T4 10' 20” value (DRC-1, concentration 20) was 21.3205%, the “% inhibition T4 10' 40” value (DRC-1, concentration 40) was 28.2089% and the “% inhibition T4 10' 80” value (DRC-1, concentration 80) was 28.2741%. For the same compound, the “% inhibition T4 70' 2.5” value (DRC-1, read at 70', concentration 2.5) was 5.999%, the “% inhibition T4 70' 5” value (DRC-1, read at 70', concentration 5) was 5.822% and the “% inhibition T4 70' 10” value (DRC-1, read at 70', concentration 10) was 15.1139%. The “% inhibition T4 70' 20” value (DRC-1, read at 70', concentration 20) was 11.2187%, the “% inhibition T4 70' 40” value (DRC-1, read at 70', concentration 40) was 17.6446% and the “% inhibition T4 70' 80” value (DRC-1, read at 70', concentration 80) was 16.7862%. For the same compound, the “% inhibition T4 130' 2.5” value (DRC-1, read at 130', concentration 2.5) was 3.358%, the “% inhibition T4 130' 5” value (DRC-1, read at 130', concentration 5) was 2.079% and the “% inhibition T4 130' 10” value (DRC-1, read at 130', concentration 10) was 10.4202%. The “% inhibition T4 130' 20” value (DRC-1, read at 130', concentration 20) was 6.447%, the “% inhibition T4 130' 40” value (DRC-1, read at 130', concentration 40) was 13.4652% and the “% inhibition T4 130' 80” value (DRC-1, read at 130', concentration 80) was 12.4594%. For the same compound, the “% inhibition T4 10' 2.5” value (DRC-2, concentration 2.5) was -4.4%, the “% inhibition T4 10' 5” value (DRC-2, concentration 5) was -3% and the “% inhibition T4 10' 10” value (DRC-2, concentration 10) was 4%. The “% inhibition T4 10' 20” value (DRC-2, concentration 20) was 6.52%, the “% inhibition T4 10' 40” value (DRC-2, concentration 40) was 12% and the “% inhibition T4 10' 80” value (DRC-2, concentration 80) was 8%. For the same compound, the “% inhibition T4 40' 2.5” value (DRC-2, read at 40', concentration 2.5) was -4.37%, the “% inhibition T4 40' 5” value (DRC-2, read at 40', concentration 5) was -3.69% and the “% inhibition T4 40' 10” value (DRC-2, read at 40', concentration 10) was 2%. The “% inhibition T4 40' 20” value (DRC-2, read at 40', concentration 20) was 3.35%, the “% inhibition T4 40' 40” value (DRC-2, read at 40', concentration 40) was 9% and the “% inhibition T4 40' 80” value (DRC-2, read at 40', concentration 80) was 4.65%. For the same compound, the “% inhibition T4 90' 2.5” value (DRC-2, read at 90', concentration 2.5) was -3.79%, the “% inhibition T4 90' 5” value (DRC-2, read at 90', concentration 5) was -6% and the “% inhibition T4 90' 10” value (DRC-2, read at 90', concentration 10) was 0.277%. The “% inhibition T4 90' 20” value (DRC-2, read at 90', concentration 20) was 0.217%, the “% inhibition T4 90' 40” value (DRC-2, read at 90', concentration 40) was 6% and the “% inhibition T4 90' 80” value (DRC-2, read at 90', concentration 80) was 0.315%. For the same compound, the “% inhibition T4 180' 2.5” value (DRC-2, read at 180', concentration 2.5) was -5.62%, the “% inhibition T4 180' 5” value (DRC-2, read at 180', concentration 5) was -11% and the “% inhibition T4 180' 10” value (DRC-2, read at 180', concentration 10) was -7%. The “% inhibition T4 180' 20” value (DRC-2, read at 180', concentration 20) was -5.56%, the “% inhibition T4 180' 40” value (DRC-2, read at 180', concentration 40) was -0.544% and the “% inhibition T4 180' 80” value (DRC-2, read at 180', concentration 80) was -3.3%.
